Test results taken from patent US9006250B2, “4-amino-6-(heterocyclic)picolinates and 6-amino-2-(heterocyclic)pyrimidine-4-carboxylates and their use as herbicides” (Dow AgroSciences, LLC, priority 2013, dated 2015).

Key:
[1] = system: ECHCG: barnyardgrass (Echinochloa crus-galli); assay: Post-Emergent Test I herbicidal activity; assay type: in vivo; conditions: 4 Kg ai/ha
Experimental: (§1) Post-Emergent Test I: Seeds test species were obtained from commercial suppliers and planted into a 5″-round pot containing soil-less media mix (Metro-Mix 360®, Sun Gro Horticulture). Postemergence treatments were planted 8-12 days (d) prior to application and cultured in a greenhouse equipped with supplemental light sources to provide a 16 hour (h) photoperiod at 24-29° C. All pots were surface irrigated. Approximately 10 milligrams (mg) of each compound were dissolved in 1.3 mL acetone-DMSO (97:3, v/v) and diluted with 4.1 mL water-isopropanol-crop oil concentrate (78:20:2, v/v/v) containing 0.02% Triton X-155. Treatments were serial diluted with the above formulation solvent to provide 1.85, 0.926, 0.462 and 0.231 mg/mL of test compound delivered in 2.7 mL/pot (roughly equivalent to 4.0, 2.0, 1.0, and 0.5 kg/ha, respectively). Formulated compounds were applied using a DeVilbiss® compressed air sprayer at 2-4 pounds per square inch (psi). Following treatment, pots were returned to the greenhouse for the duration of the experiment. All pots were sub-irrigated as need to provide optimum growing conditions. All pots were fertilized one time per week by subirrigating with Peters Peat-Lite Special® fertilizer (20-10-20). Phytotoxicity ratings were obtained 10 days after treatment postemergence applications. All evaluations were made visually on a scale of 0 to 100 where 0 represents no activity and 100 represents complete plant death. Visual assessments of plant injury were made based on growth reduction, discoloration, leaf deformity and necrosis.

[2] = system: SETFA: giant foxtail (Setaria faberi); assay: Post-Emergent Test I herbicidal activity; assay type: in vivo; conditions: 4 Kg ai/ha
Experimental: as §1

[3] = system: IPOHE: ivyleaf morningglory (Ipomoea hederecea); assay: Post-Emergent Test I herbicidal activity; assay type: in vivo; conditions: 4 Kg ai/ha
Experimental: as §1

[4] = system: AVEFA: wild oats (Avena fatua); assay: Post-Emergent Test I herbicidal activity; assay type: in vivo; conditions: 4 Kg ai/ha
Experimental: as §1

[5] = system: HELAN: sunflower (Helianthus annuus); assay: Post-Emergent Test I herbicidal activity; assay type: in vivo; conditions: 4 Kg ai/ha
Experimental: as §1

melting point [°C] | Compound | Visual Growth Reduction (%) 10 Days After Application ECHCG [1] | Visual Growth Reduction (%) 10 Days After Application SETFA [2] | Visual Growth Reduction (%) 10 Days After Application IPOHE [3] | Visual Growth Reduction (%) 10 Days After Application AVEFA [4] | Visual Growth Reduction (%) 10 Days After Application HELAN [5]
 | COC(=O)c1nc(-c2ccc3nonc3c2F)cc(N)c1Cl [Compound 6, Methyl 4-amino-3-chloro-6-(4-fluorobenzo[c][1,2,5]oxadiazol-5-yl)picolinate] | G (0-29) | G (0-29) | G (0-29) | G (0-29) | G (0-29)
177 to 178 | Nc1cc(-c2cc3nonc3cc2F)nc(C(=O)O)c1Cl [Compound 7] |  |  |  |  | 
